In patent US10287530B2, “Surfactants based on monounsaturated fatty alcohol derivatives” (priority 2013, dated 2019):
Like-named read-outs stand apart in the source and are kept apart here.

Assays:
[1] = Appearance and solubility of surfactants and of 1:1 molar blends with cationic surfactant; format: physicochemical; conditions: for Appearance, 1.0%: 1:1 molar blend of the anionic with Ammonyx Cetac 30, 1.0% actives
Procedure: The surfactant blends tested are prepared at a 1:1 molar ratio without any pH adjustment. Dilutions are made using deionized water to the desired actives level. Actives amounts are wt. % unless indicated otherwise. Appearances are reported at ambient temperature for samples prepared within the last 24 h.

[2] = tested on: zein, yellow corn (maize) protein
Procedure: The zein test is based on solubilization by surfactants of a yellow corn (maize) protein that is normally insoluble in water unless it is denatured. The test gravimetrically determines the amount of zein dissolved by a surfactant solution. The solubility of zein in surfactant solutions correlates well with skin irritation or roughness caused by the surfactant. […] A higher zein number corresponds to a greater degree of irritation.
A 1% actives solution of each test surfactant (120 mL) is prepared. The pH of each solution is adjusted to about 7.0 with dilute aq. sulfuric acid or dilute aq. sodium hydroxide. The surfactant solution is warmed to 45° C. Zein powder (1.50 g) is added to each of three jars. Surfactant (25.0 g of 1% actives solution) is added to each jar, and to one empty jar to be used as a blank. The solutions are mixed using magnetic stirring on a temperature-controlled hotplate at 45° C. for 60 min. Each mixture is then centrifuged (2500 rpm, 15 min.), and undissolved zein powder is isolated by vacuum filtration. The residue is washed with deionized water and dried (55° C., 24 h) to constant weight. The amount of undissolved zein protein is found gravimetrically, and the results from three runs are averaged to give the % of solubilized zein and zein number.

| Substance | Solubility [1] | Appearance, 0.1% ([1]; 1:1 molar blend of the anionic with Ammonyx Cetac 30, 0.1% actives, ambient temperature) | Appearance, 1.0% ([1]; ambient temperature) | % solubilized zein [2] | zein number [2] | % solubilized zein ([2]; 1% actives solution, pH about 7.0, 45° C., 60 min, average of three runs) | zein number ([2]; relative to 1% actives Stepanol WA-Extra PCK (SLS) control = 100, higher = more irritating, average of three runs) |
| --- | --- | --- | --- | --- | --- | --- | --- |
| 1-Undecanol, 1EO Ether Sulfate, Sodium Salt [Sat. C11 alcohol 1EO Na sulfate] | fair-poor | hazy liquid | separated | 33.7% | 68.0 | – | – |
| Undecylenic Alcohol, 1EO Ether Sulfate, Sodium Salt [Unsat. C11 alcohol 1EO Na sulfate] | good | – | separated | – | – | 8.3% | 16.7 |
